These results are taken from patent US11384067B2, “Pyrazole n-linked carbamoyl cyclohexyl acids as LPA antagonists” (BRISTOL-MYERS SQUIBB COMPANY, priority 2017, dated 2022).

One test deals with IPF patients. The note with it: 26-week clinical trial; cited from earlier work.
In a further test the target is T1, human LPA1 (Homo sapiens, UniProt Q92633).
T1 construct: expressed in transfected cells; host or cells: Chinese hamster ovary (CHO) cells
As to the kind of experiment: LPA1 functional antagonist assay (LPA-induced calcium flux). It is filed as cell-based. The settings on record: CHO cells overexpressing human LPA1, 10 nM LPA, read-out: hLPA1 IC50. As for the experimental part: The effectiveness of compounds of the present invention as LPA1 inhibitors can be determined in an LPA1 functional antagonist assay as follows:
The cells were then equilibrated to room temperature for 30 minutes before the assay. […] IC50 values were determined by fitting data to a 4-parameter logistic equation (GraphPad Prism, San Diego Calif.).

Another test deals with nerve-injured mice. The settings on record: pretreatment; cited from earlier work.
Test [1] has as its system human foetal lung fibroblasts. The settings on record: cited from earlier work.
The test system of another test is UUO mice. The note with it: compared with LPA1 (-/-) mice; cited from earlier work.
Test [2] has as its system pancreatic cancer cell lines. The note with it: cited from earlier work.
Test [3] deals with mouse epithelial renal cell line, MCT. The settings on record: co-treatment with LPA, MCT cells; cited from earlier work.

Structures are written as SMILES.

T1 sequence (Q92633 whole entry): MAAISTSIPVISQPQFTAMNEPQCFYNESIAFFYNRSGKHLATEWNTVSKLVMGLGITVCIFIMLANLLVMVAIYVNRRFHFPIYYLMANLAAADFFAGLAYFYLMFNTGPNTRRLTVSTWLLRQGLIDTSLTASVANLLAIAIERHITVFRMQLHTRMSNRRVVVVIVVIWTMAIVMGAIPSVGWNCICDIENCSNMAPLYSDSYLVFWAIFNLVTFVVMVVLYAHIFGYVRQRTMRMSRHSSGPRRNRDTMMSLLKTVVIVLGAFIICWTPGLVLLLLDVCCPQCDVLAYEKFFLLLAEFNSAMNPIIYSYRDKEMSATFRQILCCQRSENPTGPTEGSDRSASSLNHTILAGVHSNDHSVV

On to `Cc1noc(-c2ccc(-c3ccc(C4(C(=O)O)CC4)cc3)cc2)c1NC(=O)O[C@H](C)c1ccccc1` [BMS-986020], for which the “rate of FVC (forced vital capacity) decline” value in the test on IPF patients was “significantly reduce”. In the case of `Cc1nc(-c2cnn(C)c2CN(C)C(=O)OCc2ccccc2)ccc1O[C@H]1CCC[C@H](C(=O)O)C1` [Example 32, (1S,3S)-3-((6-(5-((((benzyloxy)carbonyl)(methyl)amino)methyl)-1-methyl-1H-pyrazol-4-yl)-2-methyl-pyridin-3-yl)oxy)cyclohexane-1-carboxylic acid], on human LPA1, the IC50 stood at 211 nM.

Regarding `Cc1nc(-c2cnn(C)c2CNC(=O)OCc2ccccc2)ccc1O[C@H]1CCC[C@H](C(=O)O)C1` [Example 33, (1S,3S)-3-((6-(5-((((benzyloxy)carbonyl)amino)methyl)-1-methyl-1H-pyrazol-4-yl)-2-methylpyridin-3-yl)oxy)cyclohexane-1-carboxylic acid], on human LPA1, the IC50 turned out to be 13 nM. The same measure, in the same setting: under `CC[C@H](C)COC(=O)NCc1c(-c2ccc(O[C@H]3CCC[C@H](C(=O)O)C3)c(C)n2)cnn1C` [Example 34, (1S,3S)-3-((2-methyl-6-(1-methyl-5-(((((S)-2-methylbutoxy)carbonyl)amino)methyl)-1H-pyrazol-4-yl)pyridin-3-yl)oxy)cyclohexane-1-carboxylic acid] stands 20 nM; under `Cc1nc(-c2cnn(C)c2CNC(=O)OCC2CCC2)ccc1O[C@H]1CCC[C@H](C(=O)O)C1` [Example 35, (1S,3S)-3-((6-(5-((((cyclobutyl-methoxy)carbonyl)amino)methyl)-1-methyl-1H-pyrazol-4-yl)-2-methyl-pyridin-3-yl)oxy)cyclohexane-carboxylic acid], 10 nM; under `CC[C@H](C)COC(=O)NCc1c(-c2ncc(O[C@H]3CCC[C@H](C(=O)O)C3)c(C)n2)cnn1C` [Example 36, (1S,3S)-3-((4-methyl-2-(I-methyl-5-(((((S)-2-methylbutoxy)carbonyl)amino)methyl)-1H-pyrazol-4-yl)pyrimidin-5-yl)oxy)cyclohexane-1-carboxylic Acid], 31 nM. Same read-out and setting: under `Cc1nc(-c2cnn(C)c2CNC(=O)OCc2ccccc2)ncc1O[C@H]1CCC[C@H](C(=O)O)C1` [Example 37, (1S,3S)-3-((2-(5-((((benzyloxy)carbonyl)amino)methyl)-1-methyl-1H-pyrazol-4-yl)-4-methylpyrimidin-5-yl)oxy)cyclohexane-1-carboxylic Acid] stands 16 nM; under `Cc1nc(-c2cnn(C)c2CNC(=O)OCC(C)C)ncc1O[C@H]1CCC[C@H](C(=O)O)C1` [Example 38, (1S,3S)-3-((2-(5-(((isobutoxy-carbonyl)amino)methyl)-1-methyl-1H-pyrazol-4-yl)-4-methylpyrimidin-5-yl)oxy)cyclohexane-1-carboxylic acid], 218 nM. Same read-out and setting: under `Cc1nc(-c2cnn(C)c2NC(=O)OC(C)(C)C)ncc1O[C@H]1CCC[C@H](C(=O)O)C1` [Example 39, (1S,3S)-3-((2-(5-((tert-butoxycarbonyl)amino)-1-methyl-1H-pyrazol-4-yl)-4-methylpyrimidin-5-yl)oxy)cyclohexane-1-carboxylic Acid] stands 1520 nM.

Turning to `Cc1nc(-c2cnn(C)c2NC(=O)O[C@H](C)c2ccccc2)ncc1O[C@H]1CCC[C@H](C(=O)O)C1` [Example 40, (1S,3S)-3-((4-methyl-2-(1-methyl-5-((((R)-1-phenylethoxy)carbonyl)amino)-1H-pyrazol-4-yl)pyrimidin-5-yl)oxy)cyclohexane-1-carboxylic acid], the concentration for half-maximal inhibition (IC50) at human LPA1 was found to be 105 nM. Regarding `Cc1nc(-c2cnn(C)c2NC(=O)O[C@H](C)C2CC2)ncc1O[C@H]1CCC[C@H](C(=O)O)C1` [Example 41, (1S,3S)-3-((2-(5-((((R)-1-cyclopropyl-ethoxy)carbonyl)amino)-1-methyl-1H-pyrazol-4-yl)-4-methylpyrimidin-5-yl)oxy)cyclohexane-1-carboxylic acid], on human LPA1, the IC50 was 80 nM. In the case of `CCCCOC(=O)Nc1c(-c2ncc(O[C@H]3CCC[C@H](C(=O)O)C3)c(C)n2)cnn1C` [Example 42, (1S,3S)-3-((2-(5-((butoxycarbonyl)amino)-1-methyl-1H-pyrazol-4-yl)-4-methylpyrimidin-5-yl)oxy)cyclohexane-1-carboxylic acid], the IC50 on human LPA1 stood at 239 nM. In the case of `Cc1nc(-c2cnn(C)c2NC(=O)OCC(C)C)ncc1O[C@H]1CCC[C@H](C(=O)O)C1` [Example 43], the IC50 on human LPA1 was 564 nM. For `Cc1nc(-c2cnn(C)c2NC(=O)OCC2CC2)ncc1O[C@H]1CCC[C@H](C(=O)O)C1` [Example 44, (1S,3S)-3-((2-(5-(((cyclopropyl-methoxy)carbonyl)amino)-1-methyl-1H-pyrazol-4-yl)-4-methylpyrimidin-5-yl)oxy)cyclohexane-1-carboxylic acid], the concentration for half-maximal inhibition (IC50) on human LPA1 turned out to be 995 nM. Consider `C[C@@H](N)[C@H]1CC[C@H](C(=O)Nc2ccncc2)CC1` [Example Y-27632], for which the allodynia and hyperalgesia entry in the test with nerve-injured mice is given as “completely abolished”. As to `Cc1noc(-c2ccc(CSCCC(=O)O)cc2)c1NC(=O)OC(C)c1ccccc1Cl` (stereo not drawn) [Ki16425], in test [1], the “chemotaxis of human foetal lung fibroblasts induced by BAL from IPF patients” value is given as “blocked” and the “fibroblast chemotactic activity in bronchoalveolar lavage samples of IPF subjects” value is “inhibited”. Moreover, in the test with UUO mice, the “development of renal fibrosis in UUO mice” value is on record as “closely resembled the profile of LPA1 (−/−) mice”. Besides, the “in vitro migration in response to LPA and ascites from pancreatic cancer patients” value in test [2] was “effectively blocked”. In test [2] (highly peritoneal metastatic pancreatic cancer cell line), the “LPA-induced and ascites-induced invasion activity” value was “blocked”. Besides, the “LPA induction of CTGF expression” value in test [3] is reported as “almost completely suppressed”.
